The data set is described as follows: CHI Log D procedure. It counts as physicochemical. The following applies: for chromatographic logD: pH 7.4, CHI Log D; for CHI Log D: pH 7.4.

Regarding `CC(=O)N1CCC[C@]12CC=CCCCC1(CCCC=CCCCCCC[C@@](C)(C(=O)N[C@@H](Cc3ccccc3)C(=O)N[C@@H](Cc3c[nH]c4ccccc34)C(=O)N[C@@H](CCC(N)=O)C(N)=O)NC(=O)[C@H](C(C)C)NC(=O)[C@H](Cc3ccccc3)NC(=O)[C@H](C)NC(=O)[C@H](C)NC(=O)[C@H](Cc3ccc(-c4ccccc4)cc3)NC(=O)[C@H](CC(=O)O)NC1=O)NC(=O)[C@H](C)NC(=O)[C@H](CC(=O)O)NC2=O` (stereo partly drawn) [I-235, Ac-PL3-Asp-Ala-B5-Asp-Bip-Ala-Ala-Phe-Val-S8-Phe-Trp-Gln-NH2], the chromatographic logD stood at 3.2.
For the molecule `CC(=O)N1CCC[C@]12CC=CCCCC1(CCCC=CCCCCCC[C@@](C)(C(=O)N[C@@H](Cc3ccccc3)C(=O)N[C@@H](Cc3c[nH]c4ccccc34)C(=O)N[C@@H](CCC(N)=O)C(N)=O)NC(=O)[C@H](C(C)C)NC(=O)[C@H](Cc3ccccc3)NC(=O)[C@H](C)NC(=O)[C@H](C)NC(=O)[C@H](Cc3ccc(F)cc3)NC(=O)[C@H](CC(=O)O)NC1=O)NC(=O)[C@H](C)NC(=O)[C@H](CC(=O)O)NC2=O` (stereo partly drawn) [I-258, Ac-PL3-Asp-Ala-B5-Asp-4FF-Ala-Ala-Phe-Val-S8-Phe-Trp-Gln-NH2], the chromatographic logD was found to be 2.89.
With `CC(=O)N1CCC[C@]12CC=CCCCC1(CCCC=CCCCCCC[C@@](C)(C(=O)N[C@@H](Cc3ccc(F)c(F)c3)C(=O)N[C@@H](Cc3c[nH]c4ccccc34)C(=O)N[C@@H](CCC(N)=O)C(N)=O)NC(=O)[C@H](C(C)C)NC(=O)[C@H](Cc3ccccc3)NC(=O)[C@H](C)NC(=O)[C@H](C)NC(=O)[C@H](CC(=O)O)NC(=O)[C@H](CC(=O)O)NC1=O)NC(=O)[C@H](C)NC(=O)[C@H](CC(=O)O)NC2=O` (stereo partly drawn) [I-262, Ac-PL3-Asp-Ala-B5-Asp-Asp-Ala-Ala-Phe-Val-S8-34FF-Trp-Gln-NH2], the “CHI Log D” value is recorded as 2.106.
The same measure, in the same setting: the same measure for `CC(=O)N1CCC[C@]12CC=CCCCC1(CCCC=CCCCCCC[C@@](C)(C(=O)N[C@@H](Cc3ccc(F)c(F)c3)C(=O)N[C@@H](Cc3c[nH]c4ccccc34)C(=O)N[C@@H](CCC(N)=O)C(N)=O)NC(=O)[C@H](C(C)C)NC(=O)[C@H](Cc3ccccc3)NC(=O)[C@H](C)NC(=O)[C@H](C)NC(=O)[C@H](CC(=O)O)NC(=O)[C@H](CC(=O)O)NC1=O)NC(=O)[C@H](C)NC(=O)[C@H](CC(=O)O)NC2=O` (stereo partly drawn) [I-263, Ac-PL3-Asp-Ala-B5-Asp-Asp-Ala-Ala-Phe-Val-S8-34FF-Trp-Gln-NH2]: 2.128; for `CC(=O)N1CCC[C@]12CC=CCCCC1(CCCC=CCCCCCC[C@@](C)(C(=O)N[C@@H](Cc3ccccc3)C(=O)N[C@@H](Cc3c[nH]c4ccccc34)C(=O)N[C@@H](CCC(N)=O)C(N)=O)NC(=O)[C@H](C(C)C)NC(=O)[C@H](Cc3cccc(F)c3)NC(=O)[C@H](C)NC(=O)[C@H](C)NC(=O)[C@H](CC(=O)O)NC(=O)[C@H](CC(=O)O)NC1=O)NC(=O)[C@H](C)NC(=O)[C@H](CC(=O)O)NC2=O` (stereo partly drawn) [I-264, Ac-PL3-Asp-Ala-B5-Asp-Asp-Ala-Ala-3FF-Val-S8-Phe-Trp-Gln-NH2]: 2.011.
In turn, `CC(=O)N1CCC[C@]12CC=CCCCC1(CCCC=CCCCCCC[C@@](C)(C(=O)N[C@@H](CCc3ccc(O)cc3)C(=O)N[C@@H](Cc3c[nH]c4ccccc34)C(=O)N[C@@H](CCC(N)=O)C(N)=O)NC(=O)[C@H](C(C)C)NC(=O)[C@H](Cc3ccccc3)NC(=O)[C@H](C)NC(=O)[C@H](C)NC(=O)[C@H](CC(=O)O)NC(=O)[C@H](CC(=O)O)NC1=O)NC(=O)[C@H](C)NC(=O)[C@H](CC(=O)O)NC2=O` (stereo partly drawn) [I-269, Ac-PL3-Asp-Ala-B5-Asp-Asp-Ala-Ala-Phe-Val-S8-hTyr-Trp-Gln-NH2] returned a chromatographic logD of 1.81.
`CC(=O)N1CCC[C@]12CC=CCCCC1(CCCC=CCCCCCC[C@@](C)(C(=O)N[C@@H](Cc3ccccc3)C(=O)N[C@@H](Cc3c[nH]c4ccccc34)C(=O)N[C@@H](CCC(N)=O)C(N)=O)NC(=O)[C@H](C(C)C)NC(=O)[C@H](Cc3ccccc3)NC(=O)[C@H](C)NC(=O)[C@H](C)NC(=O)[C@H](CC(=O)O)NC(=O)[C@H](CC(=O)O)NC1=O)NC(=O)[C@H](C)NC(=O)[C@H](CCC(=O)O)NC2=O` (stereo partly drawn) [I-280, Ac-PL3-Glu-Ala-B5-Asp-Asp-Ala-Ala-Phe-Val-S8-Phe-Trp-Gln-NH2]: the “CHI Log D” value is on record as 1.991.

As a reminder, the chromatographic logD is a lipophilicity value derived from retention on a column. Read a low chromatographic logD as lower lipophilicity.
